From patent US7388006B2, “Non-steroidal progesting” (Bayer Schering Pharma AG, priority 2002, dated 2008)

Experiments:
[1] = test system: prostate weight and seminal vesicle of orchidectomized rats; test: Androgenic/anti-androgenic activity in vivo in orchidectomized rats (prostate weight, seminal vesicle); design: species or system rat
From the text: The absence of androgenic as well as anti-androgenic activity in vivo was confirmed by tests performed with orchidectomized rats (change in prostate weight and in the seminal vesicle).

[2] = test system: ovulation in adult female rats; test: In vivo test on progestogenic activity - ovulation inhibition (rat); conditions: for Ovulation inhibition, result in words / Ovulation inhibition, factor compared to R5020: rat; for Ovulation inhibition, factor compared to R5020: potency relative to R5020
Method: Before the treatment is started, two […] cycles of female rats (weight: 190 to 210 g) were monitored. Only animals having a regular 4 day-cycle are used for the subsequent test. Starting in the metoestrus, the test compound is administered for 4 days (day 1 to 4) and the cycle is controlled thereafter.
For subcutaneous application, the test compounds are dissolved in benzyl benzoate/castor oil (1+9 v/v) and the daily dose is administered in a volume of 1 ml/kg body weight.
For peroral application, the test compounds are suspended in a carrier liquid (85 mg Myrj^R in 100 ml 0.9% w/v NaCl solution) and the daily dose is administered in a volume of 2 ml/kg body weight.
On day 4, after the application of the test compound, those animals having estrus or metoestrus are ovariectomized under ether anesthesia on one side. Preparations of the tubes are prepared and they are investigated for ova by means of microscope. On day 5 all animals (intact and partly ovariectomized) are killed with carbon dioxide, the tubes are preserved and analyzed in the same way. It is then determined, as a percentage, in how many animals ovulation was inhibited. […] Accordingly, this compound is to be regarded as having strong, progestational activity.

rat mammary epithelium = test: Bioassay on proliferating/differentiating effects in the rat mammary epithelium (whole mount staining, terminal and alveolar endbuds); assay type: in vivo
From the text: The object of this test is to evaluate the effect of progestins on the development of the mammary gland, in particular on the formation of terminal end-buds in the mammary gland in estrogen primed rats. Progestins together with other hormones (prolactin, estrogens, glucocorticoids, growth hormones etc.) induce proliferation and differentiation of the mammary glandular epithelium. In particular, they are involved in the morphogenesis of alveolar and terminal end buds, the sites of milk protein production and secretion into the ductal lumen.
In order to determine the effects of test progestins according to the present invention, in particular compound ((+)-1), in mammary gland differentiation and proliferation, premature female rats (Wistar Han, SPF) are ovariectomized at the age of 21 days, 4 to 6 days before treatment start. The animals are treated for 6 days with standard estrogen (estrone (E1), 70 μg/kg) and the test progestin ((+)-1) (application volume: 0.1 ml/50 g body weight; vehicle: benzylbenzoate/castor oil (1+4 v/v); subcutaneous). Control groups are e.g.: vehicle, estrone without progestin, estradiol together with a known progestin, e.g. R5020 (promegestone). After the 6-day treatment the animals are killed with carbon dioxide.
For the whole mount staining, animals are shaved in the left abdominal inguinal mammary region, which is cut from the body together with the skin. For the histological/immunohistochemical analyses the right abdominal inguinal mammary gland is cut from the body together with the connective-tissue adhered thereto and fixed in 3.7% formalin in PBS (phosphate buffer saline; without Ca^2+/Mg^2+).
The preparations are fixed over night in alcohol-formalin according to the method of Tellyesniczky (see below). Then the mammary gland tissue and subcutis adhered thereto are stripped from the cutis and the preparations are again fixed over night. The further steps are as follows: ethanol 70%: 1.5 hours; acetone: 3×1.5 hours; acetone: over night; isopropanol: 1.5 hours; ethanol 96%: 2 hours; hematoxylin-iron: 3 hours; VE water: first rinse the preparations and then 2×0.5 hours; ethanol 70%: over night; ethanol 80%: 1.5 hours; ethanol 96%: 1.5 hours; isopropanol: 1.5 hours. The preparations are then moved to petri dishes and left in toluene for approximately 1 hour, i.e. until they have stopped to swim up. Then the preparations are treated with cedarwood oil (Merck, no. 1.06965). The incubation times above are minimum times and can be extended. In particular, incubation in ethanol 70% after fixation can be extended to at least 2.5 weeks.
Preparation of the solutions necessary for the whole mount staining: • a) Alcohol-formalin according to Tellyesniczky: formaldehyde 37%: 81.8 ml, ethanol 70%: 1636 ml, glacial acetic acid (to be added shortly before use): 81.8 ml (total: 1800 ml). • b) Hematoxylin mother solution: Hematoxylin (Merck, no. 1.15938): 10 g, ethanol 96%: 100 ml. The solution must stand for 48 hours at 37° C. before use. […]
By means of a 40-fold magnification, the terminal end buds near the nipple in direction of the tail are counted. […] For well-differentiated preparations this area may be reduced, with at least 250 buds to be counted. After counting, the number of end buds per 1 mm^2 is calculated.
The number of terminal and alveolar endbuds is counted per mm^2 +/− standard deviation (SD). […]

O=C1OCc2cc(NC(=O)C(O)(CC3(c4cc(C(F)(F)F)ccc4F)CC3)C(F)(F)F)ccc21 (single isomer, unassigned; (+)) [((+)-1), (+)-5-{2-hydroxy-3-[1-(2-fluoro-5-trifluoromethylphenyl)-cyclopropyl]-2-trifluoromethyl-propionylamino}-phthalide] was tested, and the “Androgenic and anti-androgenic activity in vivo” value [1] was “no androgenic as well as no anti-androgenic activity in vivo”, the inhibition at 0.01 mg/kg ([2]; Rattus norvegicus, dose 10 μg/kg, days 1 to 4, female rats) was 0% and the inhibition at 0.03 mg/kg ([2]; Rattus norvegicus, dose 30 μg/kg, days 1 to 4, female rats) was 14%. The inhibition at 0.1 mg/kg ([2]; Rattus norvegicus, dose 100 μg/kg, days 1 to 4, female rats) was 100%, the “Ovulation inhibition, result in words” value [2] was “at least as potent as the standard progestin” and the “Ovulation inhibition, factor compared to R5020” value ([2]; listed as ((+)-l)) was 1 to 2. For the same compound, the “Ovulation inhibition, factor compared to R5020” value ([2]; listed as ((+)−1)) was 1-2, the “Ovulation inhibition, result in words” value ([2]; listed as ((+)-l)) was “efficiently inhibited ovulation” and the “Threshold value for the induction of terminal and alveolar endbuds” value (rat mammary epithelium; FIG. 3) was 100 µg/kg/day. For the same compound, the “Terminal and alveolar end bud formation, result in words” value (rat mammary epithelium; at doses where pregnancy is fully maintained) was “no effects on terminal and alveolar end bud formation can be observed”, the “Mammary gland, whole mount staining (rat) [threshold value]” value (rat mammary epithelium; induction of terminal and alveolar endbuds) was 0.1 mg/kg/day and the “Mammary gland, whole mount staining, factor compared to R5020” value (rat mammary epithelium; median of three tests) was “ca. 1”. The “Dissociation in favor of uterotropic activity (uterus versus mammary gland)” value (rat mammary epithelium; pregnancy maintenance versus mammary gland) was “at least six fold”.
